Measured values as given in ChEMBL document CHEMBL6087387, “Carbon Monoxide as a Potential Therapeutic Agent: A Molecular Analysis of Its Safety Profiles” (J Med Chem, 2024).

Key:
[1] = Plasma concentration in rat at 100 mg/kg, po after 2 hrs; format: ADME, organism-based
[2] = Plasma concentration in rat at 250 mg/kg, po after 2 hrs; format: ADME, organism-based
[3] = Plasma concentration in rat at 30 mg/kg, po after 2 hrs

CC(=O)O[C@H]1C(=O)[C@@]2(C)[C@H]([C@H](OC(=O)c3ccccc3)[C@]3(O)C[C@H](OC(=O)[C@H](O)[C@@H](NC(=O)c4ccccc4)c4ccccc4)C(C)=C1C3(C)C)[C@]1(OC(C)=O)CO[C@@H]1C[C@@H]2O [PACLITAXEL]
concentration at 2 h [1]: 3.1 µM

COc1cccc2c1C(=O)c1c(O)c3c(c(O)c1C2=O)C[C@@](O)(C(=O)CO)C[C@@H]3O[C@H]1C[C@H](N)[C@H](O)[C@H](C)O1 [DOXORUBICIN]
concentration at 2 h [1]: 1.15 µM

O=C(O)c1cn(C2CC2)c2cc(N3CCNCC3)c(F)cc2c1=O [CIPROFLOXACIN]
concentration at 2 h [2]: 3.8 µM

O=c1[nH]cc(F)c(=O)[nH]1 [FLUOROURACIL]
concentration at 2 h [2]: 420 µM

COc1ccc2cc([C@H](C)C(=O)O)ccc2c1 [NAPROXEN]
concentration at 2 h [3]: > 300 µM
